Experiment: gradient 5% acetonitrile 3 min, to 50% in 2 min, to 85% in 15 min, held 3 min, 100 µL/min
Settings: column: Zorbax Extend-C18 2.1 x 50 mm; eluents: water / acetonitrile, 0.1% formic acid
Outline: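 Mixtures of ~100 pure standards were chromatographed on a Zorbax Extend-C18 column (2.1 × 50 mm, 1.8 μm) at 100 μL/min using water and acetonitrile, each with 0.1% formic acid. Detection used a quadrupole time-of-flight mass spectrometer in positive and negative ionization mode, and data collection spanned 3 months. Retention time was obtained from adduct peaks picked computationally and each checked manually.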
With `Cn1c(C2CCC(CNC(=O)Cn3c(=O)oc4ccccc43)CC2)nc2ccccc21` (stereo not given) the RP-LC retention time was 566 s. `N#Cc1ccc(C(=O)N2CCN(S(=O)(=O)c3cc(-c4noc(C5CCC5)n4)cs3)CC2)cc1` gave an RP-LC retention time of 975 s. With `Cc1nc(-c2cn(C(C)C)c3ncccc23)sc1C(=O)N1CCN(CC(C)C)CC1` the RP-LC retention time was 661 s. `O=C(NCc1ccccc1Cl)C(=O)N1CCN(Cc2ccc3c(c2)OCO3)CC1` showed an RP-LC retention time of 583 s. Work on `COC(=O)c1c(C)[nH]c(C(=O)N2CCCC(C(=O)N3CCCC3)C2)c1C` (stereo not given) yielded an RP-LC retention time of 663 s. For `CCOC(=O)C1CCN(c2cc3c(cc2NC(=O)NC2CCCC2)n(C)c(=O)n3C)CC1`, the RP-LC retention time was 777 s. `CCCN1C(=O)C(CC(=O)NCC2CCCO2)Sc2ncccc21` (stereo not given) gave an RP-LC retention time of 663 s. Work on `Cn1ncc2c3ccccc3n(CC(=O)N3CCC(N4CCCCC4)CC3)c2c1=O` yielded an RP-LC retention time of 613 s. Molecule `NC(=O)c1ccc(-c2nc(-c3ccc4c(c3)OCO4)c(-c3ccccn3)[nH]2)cc1` has an RP-LC retention time of 647 s. `Cc1ccc(Cl)cc1NC(=O)NCC1CCOCC1` showed an RP-LC retention time of 750 s. Molecule `O=C(NCc1ccco1)c1cc(-c2cccnc2)nc2ccc(Cl)cc12` has an RP-LC retention time of 788 s. `COc1ncccc1CN(C)C(=O)COc1ccccc1` gave an RP-LC retention time of 568 s. Work on `CCSc1nnc(-c2nn(C)c3c2CN(C(=O)c2cc(C)cc(C)c2)CC3)n1C` yielded an RP-LC retention time of 811 s. Molecule `O=C(c1ccc(Cl)cc1)N1CCN(c2cc(-c3cccs3)[nH]n2)CC1` has an RP-LC retention time of 809 s. With `Cc1ccc(NC(=O)c2ccc(CN3CCN(C)CC3)cc2)cc1Nc1nccc(-c2cccnc2)n1` the RP-LC retention time was 640 s. Work on `Cc1ccc(/C=C/C(=O)N2CCC(c3cc(N)on3)CC2)cc1` yielded an RP-LC retention time of 751 s. `O=C(c1c(F)cccc1Cl)N1CCc2nc(-c3ccc(Cl)cc3)ncc2C1` showed an RP-LC retention time of 1160 s. Molecule `Cn1nc(C(=O)N2CCCC(c3nnc(C(F)(F)F)o3)C2)ccc1=O` (stereo not given) has an RP-LC retention time of 638 s. `CCN(CC)CCCNC(=O)C1CCCN(c2ncnc3c2nc2n3CCCCC2)C1` (stereo not given) showed an RP-LC retention time of 556 s. For `CN(CC1(C)CCOCC1)C(=O)NCc1ccco1`, the RP-LC retention time was 649 s. Molecule `COc1nc2ccccc2nc1N1CCCC(C(=O)Nc2cccc(F)c2)C1` (stereo not given) has an RP-LC retention time of 1170 s. In the case of `O=C(CCn1cnc2cc(-c3noc(-c4ccc(F)cc4)n3)ccc21)N1CCOCC1`, the RP-LC retention time is reported as 706 s. With `Cc1ccc(CN2C[C@@H](CO)[C@H](NC(=O)c3cnccn3)C2)o1` the RP-LC retention time was 550 s. Work on `CCCNC(=O)C1CCN(c2ccc(SCC(=O)Nc3ccc(OC)c(OC)c3)nn2)CC1` yielded an RP-LC retention time of 595 s. `CCn1c(C(=O)N2CCCC(C(=O)N3CCN(c4cccc(C)c4C)CC3)C2)cc2sccc21` (stereo not given) showed an RP-LC retention time of 1140 s. Work on `COC(=O)c1cnn(-c2cccc(C)c2)c1-n1cccc1` yielded an RP-LC retention time of 964 s. With `O=C(COc1ccc(F)cc1)NCc1ccc2c(c1)OCCCO2` the RP-LC retention time was 853 s. `Cc1cc(C(=O)NCc2ccc(F)cc2F)nc2cc(-c3cccs3)nn12` gave an RP-LC retention time of 1140 s. `O=S(=O)(c1cccc(F)c1)N1CCN(c2cnn3c(C4CC4)nnc3c2)CC1` gave an RP-LC retention time of 626 s. In the case of `O=C(NCc1cc(F)ccc1F)C1CCCN(c2cnc3nccnc3c2)C1` (stereo not given), the RP-LC retention time is reported as 715 s. In the case of `COc1ccc(OC)c(S(=O)(=O)N2CCCC(C(=O)NCCc3ccccc3)C2)c1` (stereo not given), the RP-LC retention time is reported as 854 s. For `COc1ccc2nc(-c3ccc(Cl)cc3)cc(C(=O)O)c2c1`, the RP-LC retention time was 1090 s. In the case of `O=C(CSc1ncccn1)N1CCCC1`, the RP-LC retention time is reported as 591 s. For `O=C(NCc1cc(-c2ccc3c(c2)OCO3)on1)c1c(F)cccc1Cl`, the RP-LC retention time was 785 s. With `Brc1cccc(-c2nc3ccccn3c2Nc2ccc3c(c2)OCCO3)c1` the RP-LC retention time was 714 s. `Cc1c(Cl)cccc1NC(=O)CSc1ccc(N2CCCC(C(=O)NC3CC3)C2)nn1` (stereo not given) gave an RP-LC retention time of 645 s. With `CCC(C)(C)NC(=O)C1CCN(S(=O)(=O)c2c(C)[nH]c(C)c2C(=O)N2CCCCC2)CC1` the RP-LC retention time was 746 s. Work on `O=C([C@@H]1C[C@H](F)CN1S(=O)(=O)c1ccc(C(F)(F)F)cc1)N1CCCCC1` yielded an RP-LC retention time of 885 s. `CC(=O)N1CCc2cc(S(=O)(=O)Nc3ccc4c(c3)-c3nc(C)sc3CC4)ccc21` gave an RP-LC retention time of 784 s. With `COc1cccc2nc3cc(C)c(C)cc3nc12` the RP-LC retention time was 868 s. Molecule `COc1ccc(N2C=C(C#N)S(=O)(=O)c3ccc(Cl)cc32)c(OC)c1` has an RP-LC retention time of 995 s. In the case of `Cc1ccc(F)c(NC(=O)Cn2cc(-c3nnc(C)o3)ccc2=O)c1`, the RP-LC retention time is reported as 805 s. `O=C(Cn1ccn2nc(-c3ccccc3)c(CO)c2c1=O)Nc1ccc(Cl)cc1` gave an RP-LC retention time of 856 s. Molecule `O=C(NCCC1CCN(S(=O)(=O)c2ccccc2)CC1)Nc1ccc(F)cc1F` has an RP-LC retention time of 910 s. Molecule `O=C(NCC1CCN(S(=O)(=O)C2CC2)CC1)Nc1ccccc1C(F)(F)F` has an RP-LC retention time of 765 s. Work on `Cc1ccc(C(=O)N2CCC(n3c(=O)n(C)c4cncnc43)CC2)s1` yielded an RP-LC retention time of 659 s. Work on `O=C(NC1CCCCC1)N1CCC(c2noc(COCC3CC3)n2)CC1` yielded an RP-LC retention time of 830 s. For `Cc1cncn(CC(=O)N2CCN(S(C)(=O)=O)CC2)c1=O`, the RP-LC retention time was 528 s. For `CCOc1ccc(NC(=O)CN2CCc3c(c(=O)c4cc(C)ccc4n3C)C2)cc1`, the RP-LC retention time was 637 s. Molecule `O=S(=O)(c1ccccc1F)N1CCC(Nc2cccnc2)C1` (stereo not given) has an RP-LC retention time of 716 s. With `COCC(=O)NC1CCC12CCN(C(=O)C(C)C)CC2` (stereo not given) the RP-LC retention time was 636 s. Work on `COc1ccc(NS(=O)(=O)c2cc(-c3[nH]ncc3C(=O)N3CCCC3)oc2C)c(C)c1` yielded an RP-LC retention time of 707 s. Molecule `Cc1ccc(S(=O)(=O)c2cnc(N3CCC(C(N)=O)(N4CCCCC4)CC3)nc2N)cc1C` has an RP-LC retention time of 654 s. For `CC(C)COc1cc(=O)n2c(c1C(=O)N1CCOCC1)CCCCC2`, the RP-LC retention time was 656 s. `COc1ccc(-c2c(C)noc2NC(C)=O)cc1S(=O)(=O)Nc1cccc(SC)c1` showed an RP-LC retention time of 779 s. In the case of `O=C(c1ccc(Cn2cncn2)cc1)N1CCc2ccccc21`, the RP-LC retention time is reported as 706 s. `COc1ccc(S(=O)(=O)Nc2ccc3c(c2)CCC(=O)N3CC(C)C)cc1` showed an RP-LC retention time of 832 s. `CCc1ccc(Nc2nc(C(=O)NCCN3CCCC3)nc3ccccc23)cc1` gave an RP-LC retention time of 632 s. Work on `Cc1ccc(-c2nc(-c3cccc(-c4ccn[nH]4)c3)no2)c(C)c1` yielded an RP-LC retention time of 1150 s. Work on `CN(C)c1cc(-n2cnc(C(=O)Nc3ccc4c(c3)OCO4)c2)ncn1` yielded an RP-LC retention time of 774 s. `CC1(C(=O)NCc2ccc(F)cc2)CCCN(C(=O)Nc2ccc(F)c(Cl)c2)C1` (stereo not given) showed an RP-LC retention time of 972 s. `COCCN1CCn2cc(S(=O)(=O)Nc3ccc(OC)cc3)cc2C1=O` gave an RP-LC retention time of 662 s. `CCN1C(=O)C(C(=O)Nc2cccc(C)c2)C2CC1(C)Oc1ccccc12` (stereo not given) gave an RP-LC retention time of 1060 s. For `O=C(c1cccc(N2CCNC(c3ccccc3)C2)n1)N1CCCCC1` (stereo not given), the RP-LC retention time was 615 s. `O=C(Cc1cc(-c2ccco2)on1)NCc1ccccn1` showed an RP-LC retention time of 581 s. For `COc1cccc(CN2CC[C@@](C)(O)[C@H](N3CCCC3)C2)c1`, the RP-LC retention time was 519 s. `CNCCCNCc1ccc(-c2ccc(F)c(Cl)c2)o1` showed an RP-LC retention time of 580 s. In the case of `Cc1cccc(Cn2c(C)c(CNCCc3ccco3)c(C(=O)O)c2C)c1`, the RP-LC retention time is reported as 720 s. Molecule `COc1ccc(N2C(=O)C3N=NN(c4ccc(F)c(Cl)c4)C3C2=O)cc1` (stereo not given) has an RP-LC retention time of 1010 s. `COc1ccc(CNC(=O)N2CC=C(c3cn(C(C)C)c4ncccc34)CC2)cc1` gave an RP-LC retention time of 678 s. `COc1cccc(CN2CCC3(CC2)c2[nH]c4ccccc4c2CCN3C)c1` gave an RP-LC retention time of 596 s. Work on `CCn1c(=O)c(C(=O)NCc2ccc(OC)cc2)nc2cccnc21` yielded an RP-LC retention time of 720 s. `CN1CCCc2cc(C(CNC(=O)C(=O)NCCN3CCOCC3)N3CCCCC3)ccc21` (stereo not given) showed an RP-LC retention time of 558 s. With `CCN1C[C@]2(COC)CC[C@H](OC)[C@]34C5C[C@@H]6[C@@H](OC)C[C@@]7(OCOC7(C13)[C@@H](O)C24)C5[C@H]6OC` (stereo not given in full) the RP-LC retention time was 614 s. In the case of `CN(C)CCNC(=O)C1CCN(c2nc3ccc(-c4cncnc4)nc3s2)CC1`, the RP-LC retention time is reported as 574 s. `Cc1nc2cc(-c3noc(-c4ccc(C)c(F)c4)n3)ccc2o1` gave an RP-LC retention time of 1210 s. With `CC(=O)N(Cc1nn(C)c2c1CN(S(=O)(=O)c1cccc(Cl)c1)CC2)c1ccccc1` the RP-LC retention time was 783 s. Work on `CCCNC(=O)C1CCN(S(=O)(=O)c2cc(C(=O)N3CCCC3)n(C)c2)CC1` yielded an RP-LC retention time of 648 s. Molecule `CC1SC(C)C(=O)N(CC(=O)NCCc2ccccc2)C1=O` (stereo not given) has an RP-LC retention time of 764 s. For `CCCCNC(=O)C1CCCN(C(=O)c2[nH]c(C)c(C(=O)OCC)c2C)C1` (stereo not given), the RP-LC retention time was 756 s. For `Cc1ccc(-n2c(=O)c3c(cc(C)n3C)n(CC(=O)Nc3cccc(C)c3)c2=O)cc1`, the RP-LC retention time was 905 s. `Cn1cc(C2=C(c3cn(CCCSC(=N)N)c4ccccc34)C(=O)NC2=O)c2ccccc21` showed an RP-LC retention time of 767 s. Work on `CCc1ccc(NC(=O)Cn2cnc3nc(N4CCC(C(=O)NC5CC5)CC4)sc3c2=O)cc1` yielded an RP-LC retention time of 708 s. `COc1ccc(C2(C(=O)Nc3cc(-c4cccs4)no3)CC2)cc1` gave an RP-LC retention time of 1060 s. `CC(C)CCNCC(O)Cn1c2ccc(Br)cc2c2cc(Br)ccc21` (stereo not given) showed an RP-LC retention time of 906 s. For `CC1CCC(NC(=O)C2CCCN(C(=O)c3cc(-c4ccncc4)n[nH]3)C2)CC1` (stereo not given), the RP-LC retention time was 632 s. With `COCCNC(=O)N1CCCn2nc(-c3ccc(C(F)(F)F)cc3)cc2C1` the RP-LC retention time was 839 s. Work on `COCC1CN(S(=O)(=O)Cc2cccc(F)c2)CC12CCNCC2` (stereo not given) yielded an RP-LC retention time of 623 s. In the case of `CC(=O)N1CCc2ccc(C(=O)N3CCCCCC3)cc21`, the RP-LC retention time is reported as 709 s. With `Cc1cc(C)cc(NC(=O)Nc2nccn(-c3ccc(Br)cc3)c2=O)c1` the RP-LC retention time was 1130 s.
